Results from patent publication US5045548A, “Quinolyl methoxy compounds and their use as antiasthmatic agents” (Fujisawa Pharmaceutical Company, Ltd., priority 1987, dated 1991).

Tests used:
[1] = system: SRS-A (Slow Reacting Substance of Anaphylaxis) synthesis in rat polymorpholeukocyte (PMN); assay: Inhibitory Activity of SRS-A synthesis in rat polymorpholeukocyte (PMN) using the calcium ionophore A23187 (i-LTC4 by radioimmunoassay); type: cell-based, rat (male Sprague-Dawley); details: Rattus norvegicus, 0.25 h, 10 μM A23187, 15 min, 37° C.
Method: Test I: Inhibitory Activity of SRS-A (Slow Reacting Substance of Anaphylaxis) synthesis in rat polymorpholeukocyte (PMN) of using the calcium ionophore Male Sprague-Dawley rats weighing 250-300 g were anesthetized with ether and each was injected intraperitoneally with 20 ml of 0.1% clycogen (from Oyster). After 20 hours the rats were sacrificed and PMN were recovered in rinse of the peritoneal cavity with 10 ml Dulbeccos PBS (components in g/L: CaCl2 0.1, KH2 PO4 0.2, MgCl2.6H2 O 0.1, NaCl 8.0, Na2 HPO4.7H2 O 2.16; pH7.4). These rinses were filtered through nylon wool filter and centrifuged for 5 min at 1000 xg. The pellet was suspended in Dulbeccos PBS and centrifuged for 5 min at 1000 xg. The pellet was resuspended in Dulbeccos PBS and adjusted the cell concentration to 10^7 cells/ml with Dulbeccos PBS. Samples were dissolved in ethanol and dispersed in Dulbeccos PBS to give a concentration of 10^-10 -10^-5 M Antibiotic A23187; calcium ionophor ([…] Diagnostics) (hereinafter referred to A23187) in DMSO(10mM) was diluted with Dulbeccos PBS to give the concentration of 1 mM. Aliquots of the cell suspension (1×10^7 cells/ml, 0.98 ml) were equilibrated for 30 min at 37° C. Solution of sample(10 μl) was added and incubated for 15 min at 37° C. before the addition of 10 μl of A23187 solution. Thus the final incubation volume of 1 ml contained approximately 1×10^7 cells, 10^-10 -10^-5 M samples and 10 μM A23187. Incubation with A23187 were continued for 15 min at 37° C. The reactions were terminated by setting the assay tubes in ice bath to chill as rapidly as possible to 4° C. The test tubes were centrifuged at 1500 xg for 5 min at 4° C. and decanted the supernatants into the tubes and kept cold prior to assaying. The concentration of i-LTC4 in the cell-free supernatants from the incubations were determined by specific radioimmunoassay. The mean values of i-LTC4 (these incubations were carried out in duplicate) of each sample were calculated and the effect of samples on the synthesis of the leukotrienes was presented as a percentage of the value in the absence of samples.

[2] = system: Intimal Thickening of Rabbit Carotid Artery; assay: Antiatherosclerotic activity: cuff-induced intimal thickening of rabbit carotid artery; type: in vivo, rabbit (male Japanese white); details: i.m.; for Intimal thickening index: once a day, 3 weeks, mean ± SE (n = 8)
From the text: Induction of Intimal Thickening of Rabbit Carotid Artery
Forty male Japanese white rabbits weighing about 2 kg were used for the test of the compound of Example 40. They were divided into 5 groups of 8 animals: one served as control, and the other 4 as drug dose groups. The rabbits were anesthetized with care not to injure the surrounding tissues. A polyetherylene cuff (1.5 cm long, 2.15 mm inner diameter, 3.25 mm outer diameter) was placed around the artery. The rabbits were maintained for 3 weeks on standard laboratory diet and water ad libitum. The compound of Example 40 and the vehicle (0.5%, w/v methyl cellulose in saline) were given intramuscularly once a day starting from the day of cuff-placement. At the end of the 3rd week, the rabbits were heparinized (500, i.v.), and the artery was removed, washed free of blood with saline, fixed by immersion in 10% formalin and divided into 8 cross-segments about 2 mm long. The segments were embedded in paraffin and cut into transverse sections. These sections were stained with orecin. About 70 transverse sections were prepared form each artery and used for the quantitation of the initimal thickening.
Quantitation of Intimal Thickening (Intimal Thickening Index)
The arterial sections were observed by light microscopy and the intimal thickening was scored as follows. 0=no thickening; 1=slight hyperplasia in the subendothelial space with intima media ratio of about 1/10; 2=several layers of cells in the subendothelial space with intima media ratio of about 1/5, or parts of the subendothelial space with more hyperplasia; 3=sever hyperplasia throughout the subendothelial space with intima media ratio of more than 1/3.

[3] = system: CDE-induced pancreatitis in mice; assay: Effect on experimental pancreatitis in mice (CDE diet-induced, lethal); type: in vivo, mouse (female ICR); details: for % survival: orally two times a day for 4 days, N = 20, control 15
From the text: Test III: Effect on experimental pancreatitis in mice
The effect of 5-lipoxygenase inhibitor, the compound of Example 40 was studied in a lethal form of pancreatitis induced by feeding mice an ehionine-supplemented choline-deficient diet (CDE diet).
Female ICR mice, aged 3 wk were used in this study. All mice were fed a regular laboratory diet before the experiments. The CDE diet was then substituted for 2 days, and after this period replaced by the regular diet for an additional 6 days.
The compound of Example 40 was administered orally two times a day for 4 days after the beginning of the CDE diet.

[4] = 0.1 mg/kg, P < 0.01 compared with vehicle control
[5] = 10 mg/kg, P < 0.01 compared with vehicle control

## CCCCC1(CCCC)CCc2c(OCc3ccc4ccccc4n3)cccc2C1O (single isomer, unassigned; (+)) [Example 40, (+)-2,2-dibutyl-5-(2-quinolylmethoxy)-1,2,3,4-tetrahydro-1-naphthol]
[1]
  IC50: 6.5 nM
[2]; 0.01 mg/kg
  Intimal thickening index, percentage versus the mean value of vehicle control: 90.1%
  Intimal thickening index: 1.27 ± 0.17
[2]; [4]
  Intimal thickening index: 0.71 ± 0.16
  Intimal thickening index, percentage versus the mean value of vehicle control: 50.4%
[2]; 1.0 mg/kg
  Intimal thickening index, percentage versus the mean value of vehicle control: 65.9%
  Intimal thickening index: 0.93 ± 0.31
[2]; 0.01-10 mg/kg
  inhibition of cuff-induced intimal thickening (in words): dose-dependently inhibited cuff-induced intimal thickening
[2]; 10 mg/kg
  inhibitory activity on intimal thickening (in words): exerted significant inhibitory activity
[2]; [5]
  Intimal thickening index: 0.60±0.21
  Intimal thickening index, percentage versus the mean value of vehicle control: 42.5%
[3]; 10 mg/kg
  % survival: 10%
[3]; 32 mg/kg
  % survival: 35%
[3]; 100 mg/kg
  % survival: 85%
[3]; orally, 10-100 mg/kg
  prevention of CDE-induced pancreatitis (in words): prevented the CDE-induced pancreatitis in a dose-dependent manner
